From patent US11111233B2, “Amino pyrimidine compound for inhibiting protein tyrosine kinase activity” (Shenzhen TargetRx, Inc., priority 2016, dated 2021)
Where two headings read alike, the source gives them in different places.

Tests used:
[1] = test system: Skin cancer cell line A431 (WT); experiment: Cytotoxicity test (MTS cell viability), A431; type: cell-based; settings: Homo sapiens, A-431; MTS, 72 hours; read-out: A431 (WT) IC50
[2] = test system: lung cancer cells HCC827 (Del19); experiment: Cytotoxicity test (MTS cell viability), HCC827; type: cell-based; settings: Homo sapiens
EGFR [L858R/T790M] = EGFR [L858R/T790M] (Homo sapiens (Human), UniProt P00533, L858R/T790M); experiment: Kinase inhibition assay (HTRF), EGFR [L858R/T790M]; type: biochemical
Chain of EGFR [L858R/T790M] (P00533 25-1210 T790M/L858R): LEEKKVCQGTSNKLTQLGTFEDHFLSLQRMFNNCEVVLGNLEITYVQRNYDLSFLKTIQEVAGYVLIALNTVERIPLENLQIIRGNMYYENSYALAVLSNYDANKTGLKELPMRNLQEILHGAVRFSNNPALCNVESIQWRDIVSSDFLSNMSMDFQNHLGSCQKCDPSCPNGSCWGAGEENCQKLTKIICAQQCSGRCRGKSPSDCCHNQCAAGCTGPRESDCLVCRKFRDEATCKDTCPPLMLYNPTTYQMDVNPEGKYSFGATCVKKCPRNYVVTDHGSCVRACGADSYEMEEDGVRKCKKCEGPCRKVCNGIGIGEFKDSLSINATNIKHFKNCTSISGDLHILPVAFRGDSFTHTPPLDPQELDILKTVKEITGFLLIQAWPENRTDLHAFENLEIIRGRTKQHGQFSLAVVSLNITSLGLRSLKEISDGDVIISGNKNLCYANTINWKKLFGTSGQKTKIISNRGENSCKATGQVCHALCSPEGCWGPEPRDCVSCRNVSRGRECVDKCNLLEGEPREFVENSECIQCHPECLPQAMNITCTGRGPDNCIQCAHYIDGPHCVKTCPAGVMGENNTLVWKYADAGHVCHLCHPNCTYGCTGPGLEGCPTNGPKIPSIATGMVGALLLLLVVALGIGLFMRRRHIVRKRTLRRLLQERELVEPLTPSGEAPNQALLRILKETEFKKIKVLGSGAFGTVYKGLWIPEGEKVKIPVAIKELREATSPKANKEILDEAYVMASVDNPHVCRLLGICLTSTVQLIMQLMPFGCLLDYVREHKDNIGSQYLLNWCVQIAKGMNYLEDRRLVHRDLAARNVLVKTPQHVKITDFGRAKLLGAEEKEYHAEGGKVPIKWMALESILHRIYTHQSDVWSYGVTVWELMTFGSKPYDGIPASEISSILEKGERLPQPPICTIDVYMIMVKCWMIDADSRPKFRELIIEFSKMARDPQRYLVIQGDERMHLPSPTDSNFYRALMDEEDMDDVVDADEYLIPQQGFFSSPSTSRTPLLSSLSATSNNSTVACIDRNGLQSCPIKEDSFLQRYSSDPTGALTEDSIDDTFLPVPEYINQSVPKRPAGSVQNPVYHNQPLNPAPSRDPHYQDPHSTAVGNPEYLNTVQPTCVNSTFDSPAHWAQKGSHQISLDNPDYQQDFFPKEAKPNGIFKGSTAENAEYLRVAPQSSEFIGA

WT EGFR = WT EGFR (Homo sapiens (Human), UniProt P00533); experiment: Kinase inhibition assay (HTRF), WT EGFR; type: biochemical
Chain of WT EGFR (P00533 25-1210): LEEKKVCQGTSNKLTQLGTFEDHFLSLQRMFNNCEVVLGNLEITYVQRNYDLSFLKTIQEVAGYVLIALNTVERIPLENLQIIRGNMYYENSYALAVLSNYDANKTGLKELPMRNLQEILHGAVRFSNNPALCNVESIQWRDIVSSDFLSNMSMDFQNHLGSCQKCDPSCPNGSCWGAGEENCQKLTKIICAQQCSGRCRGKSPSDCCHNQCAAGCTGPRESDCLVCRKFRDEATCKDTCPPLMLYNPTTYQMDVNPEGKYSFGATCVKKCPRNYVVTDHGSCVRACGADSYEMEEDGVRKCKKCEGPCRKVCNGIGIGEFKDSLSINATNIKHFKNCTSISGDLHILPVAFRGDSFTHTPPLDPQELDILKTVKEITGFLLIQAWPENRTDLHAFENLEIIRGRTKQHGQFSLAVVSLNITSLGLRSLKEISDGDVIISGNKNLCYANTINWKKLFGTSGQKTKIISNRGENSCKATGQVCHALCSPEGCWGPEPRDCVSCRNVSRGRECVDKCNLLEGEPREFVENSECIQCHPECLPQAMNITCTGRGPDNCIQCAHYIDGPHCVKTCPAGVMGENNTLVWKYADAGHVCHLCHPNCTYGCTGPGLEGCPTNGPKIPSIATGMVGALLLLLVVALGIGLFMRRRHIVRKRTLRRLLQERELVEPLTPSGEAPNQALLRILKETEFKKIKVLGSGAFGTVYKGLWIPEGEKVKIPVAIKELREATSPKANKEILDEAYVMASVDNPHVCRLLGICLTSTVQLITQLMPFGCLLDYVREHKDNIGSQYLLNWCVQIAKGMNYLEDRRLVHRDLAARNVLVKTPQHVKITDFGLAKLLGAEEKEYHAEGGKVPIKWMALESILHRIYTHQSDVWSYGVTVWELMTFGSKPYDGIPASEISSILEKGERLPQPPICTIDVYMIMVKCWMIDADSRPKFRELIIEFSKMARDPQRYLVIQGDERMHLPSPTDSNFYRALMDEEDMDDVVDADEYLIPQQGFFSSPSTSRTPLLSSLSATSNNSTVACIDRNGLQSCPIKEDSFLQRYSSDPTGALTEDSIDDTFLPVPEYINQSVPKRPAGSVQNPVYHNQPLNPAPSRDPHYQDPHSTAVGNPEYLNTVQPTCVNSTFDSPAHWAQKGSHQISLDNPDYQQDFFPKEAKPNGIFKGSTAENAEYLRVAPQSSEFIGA

[3] = HCC827, 72 h, read-out: HCC827 (Del19) IC50(nM)
[4] = HCC827, MTS, 72 hours, read-out: HCC827 (Del19) IC50
[5] = HTRF Kinase TK kit, 10 min pre-incubation, 20 min reaction, read-out: EGFR(L858R/T790M) IC50
[6] = HTRF Kinase TK kit, 10 min pre-incubation, 20 min reaction

| IC50 (EGFR [L858R/T790M]; [5]) | IC50 (WT EGFR; [6]) | SMILES | IC50 [1] | IC50 [2, 3] | IC50 (EGFR [L858R/T790M]) | IC50 (WT EGFR) | IC50 [2, 4] |
| --- | --- | --- | --- | --- | --- | --- | --- |
|  |  | C=CC(=O)Nc1cc(Nc2nccc(-c3cc(F)c4nc(C)n(C(C)C)c4c3)n2)c(OC)cc1OCCOC [Example 10, N-(2-(2-methoxy-ethyl-oxy)-5-((4-(4-fluoro-1-isopropyl-2-methyl-1H-benzo[d]imidazole-6-yl)pyrimidin-2-yl)amino)-4-methoxyphenyl)acrylamide] | > 1 µM | 400 to 1000 nM | 0.05 to 0.1 µM | > 0.1 µM |  |
| < 0.001 µM | 0.001 to 0.05 µM | C=CC(=O)Nc1cc(Nc2nccc(-c3cc(F)c4nc(C)n(C5CC5)c4c3)n2)c(OC)cc1N(C)CCN(C)C [Example 20, N-(5-((4-(1-cyclopropyl-4-fluoro-2-methyl-1H-benzo[d]imidazole-6-yl)pyrimidin-2-yl)amino)-2-((2-(dimethylamino)ethyl)(methyl)amino)-4-methoxyphenyl)acrylamide] | 0.1 to 0.4 µM |  |  |  | 10 to 100 nM |
| < 0.001 µM | 0.001 to 0.05 µM | C=CC(=O)Nc1cc(Nc2nccc(-c3cc(F)c4nc(SC)n(C(C)C)c4c3)n2)c(OC)cc1N(C)CCN(C)C [Example 63, N-(2-((2-(dimethylamino)ethyl)(methyl)amino)-5-((4-(4-fluoro-1-isopropyl-2-(methylthio)-1H-benzo[d]imidazol-6-yl)pyrimidin-2-yl)amino)-4-methoxyphenyl)acrylamide] | > 1 µM |  |  |  | 10 to 100 nM |
| < 0.001 µM | 0.001 to 0.05 µM | C=CC(=O)Nc1cc(Nc2nccc(-c3cc(F)c4nc(OC)n(C(C)C)c4c3)n2)c(OC)cc1N(C)CCN(C)C [Example 6, N-(2-((2-(dimethylamino)ethyl)(methyl)amino)-5-((4-(4-fluoro-1-isopropyl-2-methoxy-1H-benzo[d]imidazole-6-yl)pyrimidin-2-yl)amino)-4-methoxyphenyl)acrylamide] | > 1 µM |  |  |  | 10 to 100 nM |

| SMILES | IC50 (EGFR [L858R/T790M]; [5]) | IC50 (WT EGFR; [6]) | IC50 [1] | IC50 [2, 3] | IC50 (EGFR [L858R/T790M]) | IC50 (WT EGFR) | IC50 [2, 4] |
| --- | --- | --- | --- | --- | --- | --- | --- |
| C=CC(=O)Nc1cc(Nc2nccc(-c3cc(F)c4nc(C)n(C(C)C)c4c3)n2)c(OCC(F)(F)F)cc1N(C)CCN(C)C [Example 49, N-(2-((2-(dimethylamino)ethyl)(methyl)amino)-5-((4-(4-fluoro-1-isopropyl-2-methyl-1H-benzo[d]imidazole-6-yl)pyrimidin-2-yl)amino)-4-(2,2,2-trifluoroethoxy)phenyl)acrylamide] | < 0.001 µM | < 0.001 µM | 0.01 to 0.1 µM | < 10 nM |  |  |  |
